The results in this text go back to US8187876B2, “Expansion of stem/progenitor cells by inhibition of enzymatic reactions catalyzed by the Sir2 family of enzymes” (Gamida Cell Ltd., priority 2004, dated 2012).

Molecules are shown by their SMILES.

What all share (type): cell-based, human
Assay [1] relates to CD34+ cells. The assay is described as follows: FACS immunophenotyping of cultured/re-selected CD34+ cells for stem/early progenitor cells. The procedure: Immunophenotyping—For immuno-phenotyping, cells were harvested, washed with phosphate buffered saline (PBS), containing 1% BSA and 0.1% sodium azide, and stained by incubation (at 4° C. for 60 min) with phycoerythrin (PE)-conjugated anti CD38 (Immunoquality Products, The Netherlands), flourescein isothiocyanate (FITC)-conjugated anti CD34 (Miltenyi Biotec) both at 5 μl per 50 μl cell suspension. The cells were then washed with the same buffer and analyzed, using FACS-calibur flow cytometer (Becton-Dickinson, Immunofluorometry systems, Mountain View, Calif.). Cells were passed at a rate of about 1000 cells/second, using saline as the sheath fluid. A 488 nm argon laser beam served as the light source for excitation. Emission of ten thousand cells was measured using logarithmic amplification and calculated using the cellQuest software. Background noise was determined using isotype control stained cells. Arithmetic Mean Fluorescence Channel (MFC) of the negative and positive populations and the stained cells to noise (S/N) ratio were calculated.
The highly purified, re-selected CD34+ cell fraction from a three week culture was FACS analyzed for stem/early progenitor cells: CD34+CD38− (FIG. 3), CD34+Lin−(CD3, 4, 19, 38, 33, 14 and 15 minus, FIG. 4) as well as for the percentages of CD38-HLA-DR minus cells (FIG. 5). […] For example, at 5 uM nicotinamide the percentages of CD34+Lin− cells were 4.11 whereas in control cultures only 0.02%, the percentages of CD34+CD38− cells were 34.6 in nicotinamide cultures and only 0.67 in control.
The CD34+CD38− cells are shown in the upper left part of the plot. FIG. 6b, the cells were stained with CD34(PE) and Lin(38, 33, 4, 3, 15, 14, 19, 61) (FITC). The CD34+Lin− cells are shown in the upper left part of the plot. FIG. 6c, the cells were stained for 34PE and HLA-DR and CD38 FITC. The CD34+/CD38− HLA-DR− cells are shown in the upper left part of the plot.

In assay [2] the test system is CD34+ cells. The assay is described as follows: Ex vivo expansion of CD34+ cell cultures, three weeks, CD34+ cells re-selected and enumerated. As to conditions: 5 μM nicotine amide; cytokines SCF, TPO, FLt3, IL-6, IL-3; only cytokine treated cultures 35×10^4. The procedure: Sample collection and purification—Cells were obtained from umbilical cord blood (CB) after a normal full-term delivery (informed consent was given). Samples were collected and processed within 12 hours postpartum. Blood was mixed with 3% Gelatin (Sigma, St. Louis, Mo.) and let sedimented for 30 minutes to remove most red blood cells (RBC). The leukocyte-rich fraction was harvested and layered on Ficoll-Hypaque gradient (1.077 g/mL; Sigma), and centrifuged at 400 g for 30 minutes. […]
Purification of CDD133+ and CD34+ cells—To purify CDD133+ or CD34^+ cells, the mononuclear cell fraction was subjected to two cycles of immuno-magnetic separation using the “MiniMACS or Clinimax CD34 progenitor cell isolation kit” (Miltenyi Biotec, Aubun, Calif.) following the manufacturer's recommendations. The purity of the CD34^+ population obtained ranged from 95% to 98% as evaluated by flow cytometry (see below). […]
At weekly intervals, cell cultures were semi-depopulated and supplemented with fresh medium, serum and cytokines. At various time points, cells were harvested, counted following staining with trypan blue, and cell morphology was determined on cytospin (Shandon, UK)-prepared smears stained with May-Grunwald/Giemsa solutions. […]

The subject of assay [3] is CD34+ cells. The experiment in a line: Two phase culture system: long-term expansion of CD34+ cell cultures (3-week treatment phase, then cytokines only). To be noted: 200 mM Splitomicin for first 3 weeks. On the procedure:
Two phase culture system—Purified CD34+ cells were cultured in culture bags (American Fluoroseal Co. Gaithersburg, Md., USA) at a concentration of 1×10^4 cells/ml in MEMα/10% FCS containing the following human recombinant cytokines: Thrombopoietin (TPO), interleukin-6 (IL-6), FLT-3 ligand and stem cell factor (SCF), each at a final concentration of 50 ng/ml (Perpo Tech, Inc., Rocky Hill, N.J., USA), with or without Nicotinamide or Sirtinol or Splitomicin and incubated at 37° C. in a humidified atmosphere of 5% CO2 in air. Until week 3, the cultures were topped weekly with the same volume of fresh medium, Nicotinamide or Sirtinol or Splitomicin and growth factors. From week three and up to the termination of the experiments the cultures were weekly demi-depopulated and supplemented with cytokines only. Cells were counted following staining with trypan blue. At various time points, harvested cells were used to assay the content of colony forming units in culture (CFUc), enumeration of CD34+ cells following re-selection and immunophenotype analysis. Cell morphology was determined on cytospin (Shandon). […] On week 5 cells were enumerated, numbers of CFUc were determined and CD34+ cells were re-isolated from 10 ml cultures, counted and accumulative numbers per culture were calculated.

Assay [4] has as its system CD34+ cells. The experiment in a line: Assay for Colony Forming Units (CFUc) in semi-solid medium. To be noted: 200 mM Splitomicin for first 3 weeks; week 5; colonies scored after 14 days. The procedure:
Assay for Colony Forming Units (CFU)—Cells were cloned in semi-solid, methylcellulose-containing medium supplemented with 2 IU/mL erythropoietin (Eprex, Cilag AG Int., Switzerland), stem cell factor and IL-3, both at 20 ng/mL, G-CSF and GM-CSF, both at 10 ng/mL (all from Perpo Tech). Cultures were incubated for 14 days at 37° C. in humidified atmosphere of 5% CO2 in air.
Cell culturing—Cell culturing was effected was described above. Specifically, cultures were initiated with a total of 1.2×10^5 CD34+ cells in cytokine-supplemented medium, with or without (control) […] Splitomicin. From week 3 and on all cultures were supplemented with cytokines only. On week 5 cells were enumerated, numbers of CFUc were determined and CD34+ cells were re-isolated from 10 ml cultures, counted and accumulative numbers per culture were calculated.

For the molecule `NC(=O)c1cccnc1` [Nicotinamide, nicotinamide], in assay [1] (5 uM nicotinamide, three week culture, control 0.67), the “percentages of CD34+CD38− cells in re-selected CD34+ fraction” value was 34.6%. In addition, the “percentages of CD34+Lin− cells in re-selected CD34+ fraction” value in assay [1] (5 uM nicotinamide, three week culture, control cultures 0.02%) amounted to 4.11%. The “CD34+ cells re-selected after three week expansion” value in assay [2] is listed as 180×10^4.
In the case of `O=C1CCc2c(ccc3ccccc23)O1` [Splitomicin], the “increase in CD34+ cells” value in assay [3] (CD34+ cells re-isolated on week 5) is listed as “about 30%”. Further, in assay [3] (counted on week 5), the “total cell expansion vs cytokine-only control” value is “more than 2 fold”. In addition, the “colony formation (CFU analysis), self-renewal potential” value in assay [4] is given as “increase in colony formation”. In addition, the “CD34+/CD38− population shift in FACS dot plot” value in assay [1] (75 mM splitomicin) is recorded as “remarkable up-left shift”.
